Experiments:
[1] = Bi-directional Caco-2 cell permeability assay; settings: human, Caco-2, pH 7.4
Description: (§1) The bi-directional Caco-2 cell permeability assay was performed as described as follows: Caco-2 cells (ECACC) were seeded onto 24-well Transwell plates at 2×10^5 cells per well and used in confluent monolayers after a 21 day culture at 37° C. under 5% CO2. Test and control compounds (propranolol, vinblastine), prepared in DMSO, were added (10 μM, 0.1% DMSO final, n=2) to donor compartments of the Transwell plate assembly in assay buffer (Hanks balanced salt solution supplemented with 25 mM HEPES, adjusted to pH 7.4) for both apical to basolateral (A>B) and basolateral to apical (B>A) measurements. Incubations were performed at 37° C., with samples removed from both donor and acceptor chambers at T=0 and 1 hour and compound analysed by mass spectrometry (LC-MS/MS) including an analytical internal standard.
(§2) Apparent permeability (Papp) values were determined from the relationship: Papp=[CompoundAcceptor T=end]×VAcceptor/([CompoundDonor T=0]×VDonor)/incubation time×VDonor/Area×60×10-6 cm/s
(§3) Where V is the volume of each Transwell compartment (apical 125 μL, basolateral 600 μL), and concentrations are the relative MS responses for compound (normalized to internal standard) in the donor chamber before incubation and acceptor chamber at the end of the incubation.
(§4) Area=area of cells exposed for drug transfer (0.33 cm2).
(§5) Efflux ratios (Papp B>A/Papp A>B) were calculated for each compound from the mean Papp values in each direction.
(§6) Lucifer Yellow (LY) was added to the apical buffer in all wells to assess viability of the cell layer.
(§7) Compound recovery from the wells was determined from MS responses (normalized to internal standard) in donor and acceptor chambers at the end of incubation compared to response in the donor chamber pre-incubation.

[2] = test system: HCV (Jc-1 Wild-type virus); assay: Efficacy testing of Sofosbuvir and n-Propyl-Sofosbuvir in HCV-infected Huh7.5 cells, quantitative PCR of HCV RNA in supernatant; format: cell-based, Hepatitis C virus; settings: for virus reduction / Ct-value (threshold cycle) of HCV-RNA: single application 48 h post infection; for virus reduction: two days treatment, inferred from Ct 28 vs 25; for Ct-value (threshold cycle) of HCV-RNA: μM range down to lowest dose, RNA extracted two days later, SYBR Green kit, untreated control Ct around 25 (FIG. 1); for antiviral profile (reduction of viral titer): single application, 72 h, concentrations down to 9 nM, Altona HCV quantification kit (FIG. 4); for amount of viral RNA (viral load) / reduction of viral RNA: two-time application, highest concentrations; for amount of viral RNA (viral load): CE-labeled PCR HCV quantification kit, controls around 10^7 IU/ml (FIG. 7); for reduction of viral RNA: versus controls
Description: HCV histochemistry and determination of virus titers. To determine virus titers, the protocol described by Linden bach et al. (2005) is slightly modified. 1×10^4 Huh-7.5 cells or 0.7×10^4 Lunet cells were seeded per 96-well 24 h prior to infection. Six wells are infected simultaneously with the same dilution of filtered cell culture supernatants of HCV transfected or infected cells. Usually, the first dilution is a 1:10 dilution followed by 1:6 dilutions. 72 h after infection, the cells are washed once with PBS and then fixed in ice-cold methanol for 20 min at −20° C. Afterwards, the cells are washed with PBS and then permeabilized with 0.5% Triton X-100 in PBS for 5 min at RT. The first antibody detecting the HCV NSSA protein (9E10) is diluted 1:2000 in PBS and was incubated on the cells for 1 h. Then the cells are washed again three times with PBS and stained with the secondary antibody (goat a-mouse coupled to HRP, Sigma) 1:200 in PBS for 45 min at RT. To detect the HCV positive cells, the wells are first washed again three times with PBS and then the HRP activity is detected by the addition of 30 μl Carbazole substrate/96-well for 15 min at RT. Afterwards, the substrate is replaced with water and the wells were analyzed by light microscopy for positive cells. The 50% tissue culture infectious dose (TCID50) is calculated based on the methods described by Spearman and Karber. By this, the concentrations of a virus isolation needed to infect 50% of a given number of wells is determined (Spearman, 1908). qPCR of viral supernatant. Total RNA was extracted by the Altostar system according to the protocol of the manufacturer. A Power SYBR Green RNA-to-Ct 1-step kit (Applied Biosystems) is used to quantify the amount of HCV RNA. Primers specific for the 5′ UTR are 5′-TGCGGAACCGGTGAGTACA-3′ (forward) and […]. The PCR program conditions are as follows: 30 min at 48° C. for reverse transcription, 10 min at 95° C. for enzyme activation, and 40 cycles of amplification with 15 s at 95° C. for denaturation and 1 min at 60° C. for annealing and extension. Standard curve reactions are run in parallel by using serially diluted Jc1/Gluc2A plasmid ranging from 2.0×10^7 to 2.0×10^0 copies. To confirm obtained for experiment 3 (FIGS. 4 and 7), PCR was performed using the Atlona HCV-quantification kit.
Efficacy Testing of Sofosbuvir and n-Propyl-Sofosbuvir (compound I″a). Huh7.5 cells (1×10^4 per well) were seeded in a 96-well plate. The following day cells were infected with 8500 TCID50/well of HCV (Jc-1 Wild-type virus) for infection. After 48 h cells were treated with Sofosbuvir, n-Propyl-Sofosbuvir and as a negative control with the solvent used for Sofosbuvir, n-Propyl-Sofosbuvir (DMSO/EtOH) at concentrations given in the Figures. Two days or three later, supernatants were harvested and RNA was extracted by the Altostar system according to the protocol of the manufacturer. Quantitative PCR was performed using the Atlona HCV-quantification kit as recommended by the manufacturer.
In one set of experiments, Sofosbuvir and n-Propyl-Sofosbuvir were applied 48 h post infection and again 24 h later as indicated by FIG. 5.
All experiments shown represent the mean of at least two independent sets of data performed in duplicates.

Caco-2 cells = assay: Bi-directional Caco-2 cell permeability assay; settings: for permeability classification in the A>B direction: Caco-2; for efflux transporter substrate finding: efflux ratio larger than 2
Description: as §1, §2, §3, §4, §5, §6, §7

[3] = test system: HCV-Jc-1 tagged to a yellow fluorescent protein; settings: after 48 h of infection; Liu et al., Antimicrob. Agents Chemother. 2015; cited from earlier work

Compound | Papp A→B at 1 h, 10 μM [1] [×10⁻⁶ cm/s] | virus reduction [2] | Ct-value (threshold cycle) of HCV-RNA [2] | antiviral profile (reduction of viral titer) [2] | amount of viral RNA (viral load) [2] | reduction of viral RNA [2] | efflux ratio at 1 h, 10 μM [1] | permeability classification in the A>B direction (Caco-2 cells) | efflux transporter substrate finding (Caco-2 cells) | IC50 [3] [µM]
CC[C@]1(O)C[C@@H]2CN(CCc3c([nH]c4ccccc34)[C@@](C(=O)OC)(c3cc4c(cc3OC)N(C)[C@H]3[C@@](O)(C(=O)OC)[C@H](OC(C)=O)[C@]5(CC)C=CCN6CC[C@]43[C@@H]65)C2)C1 [vinblastine] | 5 | – | – | – | – | – | – | – | – | –
CCCOC(=O)[C@H](C)N[P@](=O)(OC[C@H]1O[C@@H](n2ccc(=O)[nH]c2=O)[C@](C)(F)[C@@H]1O)Oc1ccccc1 [n-Propyl-Sofosbuvir, (S)-n-propyl 2-(((S)-(((2R,3R,4R,5R)-5-(2,4-dioxo-3,4-dihydropyrimidin-1(2H)-yl)-4-fluoro-3-hydroxy-4-methyltetrahydrofuran-2-yl)methoxy)(phenoxy)phosphoryl)-amino)propanoate] | 2 | about 1 log | around 28 | comparable antiviral profile | 6.5×10^5 IU/ml | about 95% | 4.4 | low permeable | substrates of efflux transporters | –
CC(C)OC(=O)[C@H](C)N[P@](=O)(OC[C@H]1O[C@@H](n2ccc(=O)[nH]c2=O)[C@](C)(F)[C@@H]1O)Oc1ccccc1 [Sofosbuvir, (S)-isopropyl 2-(((S)-(((2R,3R,4R,5R)-5-(2,4-dioxo-3,4-dihydropyrimidin-1(2H)-yl)-4-fluoro-3-hydroxy-4-methyltetrahydrofuran-2-yl)methoxy)(phenoxy)phosphoryl)-amino)propanoate] | 4 | about 1 log | around 28 | comparable antiviral profile | 6.5×10^5 IU/ml | about 95% | 4.6 | low permeable | substrates of efflux transporters | > 10

— US20190185507A1 (priority 2016, published 2019)
